# From ChEMBL document CHEMBL1142434, “Novel prostaglandin D synthase inhibitors generated by fragment-based drug design” (J Med Chem, 2008)
# pEC50, pIC50: −log10 of the molar value.
# Target: Hematopoietic prostaglandin D synthase (Homo sapiens, UniProt O60760)
# Assay: Inhibition of glutathione-S-transferase activity of prostaglandin D2 synthase
# Chain of Hematopoietic prostaglandin D synthase (O60760 whole entry): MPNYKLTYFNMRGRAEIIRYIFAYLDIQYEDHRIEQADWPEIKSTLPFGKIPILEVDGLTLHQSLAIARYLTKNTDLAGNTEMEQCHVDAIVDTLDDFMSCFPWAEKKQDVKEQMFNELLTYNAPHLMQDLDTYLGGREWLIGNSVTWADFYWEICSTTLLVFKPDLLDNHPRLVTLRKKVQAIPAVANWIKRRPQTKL
row,pIC50,SMILES
1,5.42,O=C1c2ccccc2-c2nnc(-c3ccc(O)cc3)cc21
2,7.12,Cc1ccc(NC(=O)c2cc(-c3ccccc3)ns2)cc1NC(=O)c1cccc(CN2CCN(C)CC2)c1
3,4.46,Cc1ccc(-c2cc[nH]n2)cn1
4,4.35,CCOC(=O)c1cc(O)c(-c2ccccc2)nn1
5,4.91,COc1ccc(C(=O)CBr)c2ccccc12
6,4.76,Oc1c(Cl)cc(Cl)cc1-c1cc[nH]n1
7,5.42,Cc1ccc(-c2cc3c(nn2)-c2ccccc2C3=O)cc1
8,6.00,COc1ccccc1-c1csc(Nc2ccc(C(=O)O)cc2)n1
9,4.48,COc1ccc(-c2cnn(-c3ccccc3)c2N)cc1OC
10,4.58,Cc1cc(C)c(-c2cc[nH]n2)[nH]1
11,5.82,COC(=O)c1ccc(-c2nnc(-c3ccncc3)[nH]2)nc1

# Tested on: LAD2
# Assay: Inhibition of PMA/ionomycin-induced PDG2 synthesis in human LAD2 cells
# Type: functional, cell-based
row,pEC50,SMILES
1,5.77,c1ccc(-c2ncc(-c3cc[nH]n3)s2)cc1

# Tested on: not listed separately
# Assay: Toxicity against PMA/ionomycin treated human LAD2 cells assessed as cellular viability
# Type: cell-based
row,SMILES,Activity
1,c1ccc(-c2ncc(-c3cc[nH]n3)s2)cc1,Non-toxic
